# In patent publication US12708665B2, “Anti-IL-1β antibody therapy in arrhythmogenic cardiomyopathy (ACM)” (Beth Israel Deaconess Medical Center, Inc., priority 2019, dated 2026):
# Entries after “also recorded” stand apart in the source; their conditions may differ.
# Test system: Dsg2^mut/mut mice
# Assay: Cytokine arrays, cytokine expression in hearts of Dsg2^mut/mut mice treated with Bay 11-7082
# Assay type: in vivo
# Description: Quantitative data (mean±SEM; n=5) for expression of selected cytokines in hearts of vehicle-treated wildtype (WT) mice, Dsg2^mut/mut mice and Dsg2^mut/mut mice treated with Bay 11-7082. * P<0.05 compared to WT; †P<0.05 for treated vs. untreated Dsg2^mut/mut mice.
# To characterize production of chemical mediators of the immune response in ACM, we used arrays to measure 111 different cytokines in the hearts of Dsg2^mut/mut mice and compared the amounts to those measured in the hearts of WT mice and Dsg2^mut/mut mice treated with Bay 11-7082. We observed substantial expression of multiple cytokines in the hearts of Dsg2^mut/mut mice. […] Powerful inflammatory mediators were expressed in Dsg2^mut/mut hearts including IL-1β (up by ~13-fold compared to WT hearts), IFNγ (~5-fold), IL-12 (~6-fold) and TNFα (~2-fold). […] Finally, there were increases in some molecules that fulfill anti-inflammatory roles such as IL-1Ra (up by ~4-fold).
# [1] = cytokine expression level, mouse heart
structure (smiles),measurement,setting,value
Cc1ccc(S(=O)(=O)/C=C/C#N)cc1 [Bay11-7082],"IL-1β (IL-1F2), Dsg2^mut/mut (Bay11-7082) vs Dsg2^mut/mut",[1],<1
same,"IL-1β (IL-1F2), Dsg2^mut/mut (Bay11-7082) vs WT",[1],6-10
same,"IL-2, Dsg2^mut/mut (Bay11-7082) vs Dsg2^mut/mut",[1],<1
same,"IL-2, Dsg2^mut/mut (Bay11-7082) vs WT",[1],<1
same,"IL-3, Dsg2^mut/mut (Bay11-7082) vs Dsg2^mut/mut",[1],<1
same,"IL-3, Dsg2^mut/mut (Bay11-7082) vs WT",[1],<1
same,"IL-4, Dsg2^mut/mut (Bay11-7082) vs Dsg2^mut/mut",[1],<1
same,"IL-4, Dsg2^mut/mut (Bay11-7082) vs WT",[1],<1
same,"IL-5, Dsg2^mut/mut (Bay11-7082) vs Dsg2^mut/mut",[1],<1
same,"IL-5, Dsg2^mut/mut (Bay11-7082) vs WT",[1],<1
same,"IL-6, Dsg2^mut/mut (Bay11-7082) vs Dsg2^mut/mut",[1],<1
same,"IL-6, Dsg2^mut/mut (Bay11-7082) vs WT",[1],<1
same,"IL-7, Dsg2^mut/mut (Bay11-7082) vs Dsg2^mut/mut",[1],<1
same,"IL-7, Dsg2^mut/mut (Bay11-7082) vs WT",[1],<1
same,"IL-10, Dsg2^mut/mut (Bay11-7082) vs Dsg2^mut/mut",[1],<1
same,"IL-10, Dsg2^mut/mut (Bay11-7082) vs WT",[1],<1
same,"IL-11, Dsg2^mut/mut (Bay11-7082) vs Dsg2^mut/mut",[1],<1
same,"IL-11, Dsg2^mut/mut (Bay11-7082) vs WT",[1],<1
same,"IL-12 p40, Dsg2^mut/mut (Bay11-7082) vs Dsg2^mut/mut",[1],<1
same,"IL-12 p40, Dsg2^mut/mut (Bay11-7082) vs WT",[1],1-2
same,"IL-13, Dsg2^mut/mut (Bay11-7082) vs Dsg2^mut/mut",[1],<1
same,"IL-13, Dsg2^mut/mut (Bay11-7082) vs WT",[1],1-2
same,"IL-15, Dsg2^mut/mut (Bay11-7082) vs Dsg2^mut/mut",[1],<1
same,"IL-15, Dsg2^mut/mut (Bay11-7082) vs WT",[1],2-4
same,"IL-17a, Dsg2^mut/mut (Bay11-7082) vs Dsg2^mut/mut",[1],<1
same,"IL-17a, Dsg2^mut/mut (Bay11-7082) vs WT",[1],<1
same,"IL-22, Dsg2^mut/mut (Bay11-7082) vs Dsg2^mut/mut",[1],<1
same,"IL-22, Dsg2^mut/mut (Bay11-7082) vs WT",[1],<1
same,"IL-23, Dsg2^mut/mut (Bay11-7082) vs Dsg2^mut/mut",[1],<1
same,"IL-23, Dsg2^mut/mut (Bay11-7082) vs WT",[1],<1
same,"IL-27 p28, Dsg2^mut/mut (Bay11-7082) vs Dsg2^mut/mut",[1],<1
same,"IL-27 p28, Dsg2^mut/mut (Bay11-7082) vs WT",[1],<1
same,"IL-28A/B, Dsg2^mut/mut (Bay11-7082) vs Dsg2^mut/mut",[1],<1
same,"IL-28A/B, Dsg2^mut/mut (Bay11-7082) vs WT",[1],1-2
same,"IL-33, Dsg2^mut/mut (Bay11-7082) vs Dsg2^mut/mut",[1],<1
same,"IL-33, Dsg2^mut/mut (Bay11-7082) vs WT",[1],2-4
same,"IP-10 (CXL10/CRG-2), Dsg2^mut/mut (Bay11-7082) vs Dsg2^mut/mut",[1],<1
same,"IP-10 (CXL10/CRG-2), Dsg2^mut/mut (Bay11-7082) vs WT",[1],<1
same,"KC (CXCL1), Dsg2^mut/mut (Bay11-7082) vs Dsg2^mut/mut",[1],<1
same,"KC (CXCL1), Dsg2^mut/mut (Bay11-7082) vs WT",[1],<1
same,"LDL R, Dsg2^mut/mut (Bay11-7082) vs Dsg2^mut/mut",[1],1-2
same,"LDL R, Dsg2^mut/mut (Bay11-7082) vs WT",[1],1-2
same,"LIF, Dsg2^mut/mut (Bay11-7082) vs Dsg2^mut/mut",[1],<1
same,"LIF, Dsg2^mut/mut (Bay11-7082) vs WT",[1],<1
same,"LIX, Dsg2^mut/mut (Bay11-7082) vs Dsg2^mut/mut",[1],<1
same,"LIX, Dsg2^mut/mut (Bay11-7082) vs WT",[1],>10
same,"Leptin, Dsg2^mut/mut (Bay11-7082) vs Dsg2^mut/mut",[1],<1
same,"Leptin, Dsg2^mut/mut (Bay11-7082) vs WT",[1],1-2
same,"Lipocalin-2/NGAL, Dsg2^mut/mut (Bay11-7082) vs Dsg2^mut/mut",[1],<1
same,"Lipocalin-2/NGAL, Dsg2^mut/mut (Bay11-7082) vs WT",[1],<1
same,"M-CSF, Dsg2^mut/mut (Bay11-7082) vs Dsg2^mut/mut",[1],1-2
same,"M-CSF, Dsg2^mut/mut (Bay11-7082) vs WT",[1],>20
same,"MCP-5 (CCL12), Dsg2^mut/mut (Bay11-7082) vs Dsg2^mut/mut",[1],<1
same,"MCP-5 (CCL12), Dsg2^mut/mut (Bay11-7082) vs WT",[1],<1
same,"MIP-2 (CXCL2), Dsg2^mut/mut (Bay11-7082) vs Dsg2^mut/mut",[1],<1
same,"MIP-2 (CXCL2), Dsg2^mut/mut (Bay11-7082) vs WT",[1],<1
same,"MMP-2, Dsg2^mut/mut (Bay11-7082) vs Dsg2^mut/mut",[1],1-2
same,"MMP-2, Dsg2^mut/mut (Bay11-7082) vs WT",[1],4-6
same,"MMP-3, Dsg2^mut/mut (Bay11-7082) vs Dsg2^mut/mut",[1],1-2
same,"MMP-3, Dsg2^mut/mut (Bay11-7082) vs WT",[1],<1
same,"MMP-9, Dsg2^mut/mut (Bay11-7082) vs Dsg2^mut/mut",[1],<1
same,"MMP-9, Dsg2^mut/mut (Bay11-7082) vs WT",[1],<1
same,"Myeloperoxidase, Dsg2^mut/mut (Bay11-7082) vs Dsg2^mut/mut",[1],<1
same,"Myeloperoxidase, Dsg2^mut/mut (Bay11-7082) vs WT",[1],2-4
same,"Osteopontin (OPN), Dsg2^mut/mut (Bay11-7082) vs Dsg2^mut/mut",[1],<1
same,"Osteopontin (OPN), Dsg2^mut/mut (Bay11-7082) vs WT",[1],4-6
same,"Osteoprotegerin/TNFRSF11B, Dsg2^mut/mut (Bay11-7082) vs Dsg2^mut/mut",[1],<1
same,"Osteoprotegerin/TNFRSF11B, Dsg2^mut/mut (Bay11-7082) vs WT",[1],<1
same,"P-Selectin/CD62P, Dsg2^mut/mut (Bay11-7082) vs Dsg2^mut/mut",[1],<1
same,"P-Selectin/CD62P, Dsg2^mut/mut (Bay11-7082) vs WT",[1],>10
same,"PD-EGF/Thymidine phosphorylase, Dsg2^mut/mut (Bay11-7082) vs Dsg2^mut/mut",[1],<1
same,"PD-EGF/Thymidine phosphorylase, Dsg2^mut/mut (Bay11-7082) vs WT",[1],<1
same,"PDGF-BB, Dsg2^mut/mut (Bay11-7082) vs Dsg2^mut/mut",[1],<1
same,"PDGF-BB, Dsg2^mut/mut (Bay11-7082) vs WT",[1],1-2
same,"Pentraxin 2/SAP, Dsg2^mut/mut (Bay11-7082) vs Dsg2^mut/mut",[1],<1
same,"Pentraxin 2/SAP, Dsg2^mut/mut (Bay11-7082) vs WT",[1],1-2
same,"Pentraxin 3/TSG-14, Dsg2^mut/mut (Bay11-7082) vs Dsg2^mut/mut",[1],<1
same,"Pentraxin 3/TSG-14, Dsg2^mut/mut (Bay11-7082) vs WT",[1],<1
same,"Periostin/OSF-2, Dsg2^mut/mut (Bay11-7082) vs Dsg2^mut/mut",[1],<1
same,"Periostin/OSF-2, Dsg2^mut/mut (Bay11-7082) vs WT",[1],<1
same,"Pref-1/DLK-1/FA1, Dsg2^mut/mut (Bay11-7082) vs Dsg2^mut/mut",[1],<1
same,"Pref-1/DLK-1/FA1, Dsg2^mut/mut (Bay11-7082) vs WT",[1],6-10
same,"Proliferin, Dsg2^mut/mut (Bay11-7082) vs Dsg2^mut/mut",[1],<1
same,"Proliferin, Dsg2^mut/mut (Bay11-7082) vs WT",[1],6-10
same,"Proprotein Convertase 9/PCSK9, Dsg2^mut/mut (Bay11-7082) vs Dsg2^mut/mut",[1],1-2
same,"Proprotein Convertase 9/PCSK9, Dsg2^mut/mut (Bay11-7082) vs WT",[1],<1
same,"RAGE, Dsg2^mut/mut (Bay11-7082) vs Dsg2^mut/mut",[1],<1
same,"RAGE, Dsg2^mut/mut (Bay11-7082) vs WT",[1],<1
same,"RBP4, Dsg2^mut/mut (Bay11-7082) vs Dsg2^mut/mut",[1],<1
same,"RBP4, Dsg2^mut/mut (Bay11-7082) vs WT",[1],1-2
same,"Reg3G, Dsg2^mut/mut (Bay11-7082) vs Dsg2^mut/mut",[1],<1
same,"Reg3G, Dsg2^mut/mut (Bay11-7082) vs WT",[1],6-10
same,"Resistin, Dsg2^mut/mut (Bay11-7082) vs Dsg2^mut/mut",[1],<1
same,"Resistin, Dsg2^mut/mut (Bay11-7082) vs WT",[1],2-4
same,"Serpin E1/PAI-1, Dsg2^mut/mut (Bay11-7082) vs Dsg2^mut/mut",[1],<1
same,"Serpin E1/PAI-1, Dsg2^mut/mut (Bay11-7082) vs WT",[1],6-10
same,"Serpin F1/PEDF, Dsg2^mut/mut (Bay11-7082) vs Dsg2^mut/mut",[1],<1
same,"Serpin F1/PEDF, Dsg2^mut/mut (Bay11-7082) vs WT",[1],<1
same,"TIM-1/KIM-1/HAVCR, Dsg2^mut/mut (Bay11-7082) vs Dsg2^mut/mut",[1],1-2
same,"TIM-1/KIM-1/HAVCR, Dsg2^mut/mut (Bay11-7082) vs WT",[1],<1
same,"TNF-α, Dsg2^mut/mut (Bay11-7082) vs Dsg2^mut/mut",[1],<1
same,"TNF-α, Dsg2^mut/mut (Bay11-7082) vs WT",[1],1-2
same,"Thrombopoeitin, Dsg2^mut/mut (Bay11-7082) vs Dsg2^mut/mut",[1],1-2
same,"Thrombopoeitin, Dsg2^mut/mut (Bay11-7082) vs WT",[1],<1
same,"VCAM-1/CD106, Dsg2^mut/mut (Bay11-7082) vs Dsg2^mut/mut",[1],1-2
same,"VCAM-1/CD106, Dsg2^mut/mut (Bay11-7082) vs WT",[1],6-10
same,"VEGF, Dsg2^mut/mut (Bay11-7082) vs Dsg2^mut/mut",[1],1-2
same,"VEGF, Dsg2^mut/mut (Bay11-7082) vs WT",[1],<1
same,"WISP-1/CCN4, Dsg2^mut/mut (Bay11-7082) vs Dsg2^mut/mut",[1],<1
same,"WISP-1/CCN4, Dsg2^mut/mut (Bay11-7082) vs WT",[1],<1
same,"sICAM-1 (CD54), Dsg2^mut/mut (Bay11-7082) vs Dsg2^mut/mut",[1],<1
same,"sICAM-1 (CD54), Dsg2^mut/mut (Bay11-7082) vs WT",[1],1-2
same,increased expression of cytokines in Dsg2^mut/mut hearts,"treated vs untreated Dsg2^mut/mut mice, FIG. 1, result in words",attenuation; also recorded: blunted or fully normalized
